Drawing on patent US20230051589A1, “COMPOUNDS AND COMPOSITIONS FOR TREATING CONDITIONS ASSOCIATED WITH NLRP ACTIVITY” (Novartis AG, priority 2018, published 2023), this text covers IC50 for 50 molecules.

Bounds are passed on as bounds.

The subject of the first assay is IL-1β production in PMA-differentiated THP-1 cells. The assay is described as follows: IL-1β production in PMA-differentiated THP-1 cells stimulated with gramicidin (hTHP-1 assay, 2% fetal bovine serum; Procedures 1-3). The format is cell-based, human. As to conditions: Homo sapiens, THP-1, Table B1; hTHP-1 assay containing 2% fetal bovine serum, gramicidin stimulation, IL-1β readout; read-out: hTHP-1 IC50 (average). Put shortly:
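IL-1β released into supernatants was read by HTRF after 2 h gramicidin (5 μM) challenge. Before challenge, compounds (3-fold dilutions, top 100 μM, 0.37% DMSO) were given 1 h on THP-1 cells differentiated with PMA (20 ng/ml, 16-18 h) and held in 2% FBS medium.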
For `CC(O)(CO)c1cc(F)c(S(N)(=O)=NC(=O)Nc2c3c(c(C#N)c4c2CCC4)CCC3)s1` (centres unmarked) [Compound 411], the half-inhibitory concentration (IC50) is 0.04 to 0.2 µM.

On to `CNCc1cc(F)c(S(N)(=O)=NC(=O)Nc2c3c(cc4c2CCC4)CCC3)s1` (centres unmarked) [Compound 412], for which the half-maximal inhibitory concentration (IC50) fell in the range of 0.04 to 0.2 µM.

The same assay, now with this note: Homo sapiens, THP-1, hTHP-1 assay containing 2% fetal bovine serum, Table B2, class symbols; read-out: IC50.
Regarding `C[C@](O)(CO)c1ncc(S(N)(=O)=NC(=O)Nc2c3c(cc4c2CC4)CCC3)s1` (some centres unmarked) [919f^], the IC50 fell in the range of 0.008 to 0.04 µM.

For `NS(=O)(=NC(=O)Nc1c2c(cc3c1CCC3)CCC2)c1ccc([C@@H]2CCCN2)s1` (some centres unmarked) [921f^], the IC50 lay within 0.2 to 1 µM.

Turning to `N[S@@](=O)(=NC(=O)Nc1c2c(cc3c1CCC3)CCC2)c1ccc(C2CCN2)cc1` (some centres unmarked) [Compound 802a], the IC50 lay in the range of 0.2 to 1 µM.

With `N[S@](=O)(=NC(=O)Nc1c2c(cc3c1CCC3)CCC2)c1ccc([C@H]2CCN2)cc1` [Compound 802b], the IC50 fell in the range of 5 to 30 µM.

On to `N[S@](=O)(=NC(=O)Nc1c2c(cc3c1CCC3)CCC2)c1ccc([C@@H]2CCN2)cc1` [Compound 802c], for which the IC50 is 5 to 30 µM.

On to `CC(C)(O)c1ccc([S@](N)(=O)=NC(=O)Nc2c3c(cc4c2C(=O)CC4)CCC3)cn1` [Compound 804b], for which the half-inhibitory concentration (IC50) lay within 0.2 to 1 µM.

On to `CC(C)(O)c1ccnc([S@](N)(=O)=NC(=O)Nc2c3c(c(C#N)c4c2CCC4)CCC3)c1` [Compound 818a], for which the IC50 lay within 1 to 5 µM.

Consider `CC(C)(O)c1ccnc([S@@](N)(=O)=NC(=O)Nc2c3c(c(C#N)c4c2CCC4)CCC3)c1` [Compound 818b], for which the IC50 is 0.2 to 1 µM.

Regarding `C[C@H](N[S@@](=O)(=NC(=O)Nc1c2c(cc3c1CCC3)CCC2)c1cnc(C(C)(C)O)s1)c1ccccc1` [Compound 887a], the IC50 was 5 to 30 µM.

Regarding `CN(C)Cc1ccc(S(N)(=O)=NC(=O)Nc2c3c(cc4c2CCC4)CCC3)s1` (centres unmarked) [Compound 889], the IC50 was 1 to 5 µM.

Consider `CN(C)Cc1ccc([S@](N)(=O)=NC(=O)Nc2c3c(cc4c2CCC4)CCC3)s1` [Compound 889a], for which the IC50 was in the range of 5 to 30 µM.

As to `CN(C)Cc1ccc([S@@](N)(=O)=NC(=O)Nc2c3c(cc4c2CCC4)CCC3)s1` [Compound 889b], the IC50 is 0.2 to 1 µM.

Consider `CN(Cc1ccc(S(N)(=O)=NC(=O)Nc2c3c(cc4c2CC4)CCC3)c(F)c1)C1CCC1` (centres unmarked) [Compound 891], for which the IC50 fell in the range of 1 to 5 µM.

On to `CC(NC1CCC1)c1ccc(S(N)(=O)=NC(=O)Nc2c3c(cc4c2CC4)CCC3)c(F)c1` (centres unmarked) [Compound 892], for which the IC50 lay within 0.2 to 1 µM.

On to `CC(C)(O)c1sc(S(N)(=O)=NC(=O)Nc2c3c(cc4c2CCC4)CCC3)nc1CO` (centres unmarked) [Compound 893], for which the IC50 was 0.04 to 0.2 µM.

On to `CC(C)(O)c1cccc(S(N)(=O)=NC(=O)Nc2c3c(cc4c2CCC4)CCC3)n1` (centres unmarked) [Compound 895], for which the IC50 fell in the range of 1 to 5 µM.

Take `NS(=O)(=NC(=O)Nc1c2c(cc3c1CCC3)CCC2)c1sc(CNC2CCC2)cc1F` (centres unmarked) [Compound 898]: the IC50 was in the range of 0.2 to 1 µM.

Consider `CN1CCC(c2ccc(S(N)(=O)=NC(=O)Nc3c4c(cc5c3CCC5)CCC4)c(F)c2)C1` (centres unmarked) [Compound 899], for which the IC50 was 5 to 30 µM.

Take `CC(C)(O)c1sc(S(N)(=O)=NC(=O)Nc2c3c(cc4c2CCC4)CCC3)cc1-c1ccccc1` (centres unmarked) [Compound 900]: the IC50 lay in the range of 0.04 to 0.2 µM.

With `CN(C)CC(C)(C)c1ccc(S(N)(=O)=NC(=O)Nc2c3c(cc4c2CCC4)CCC3)cc1` (centres unmarked) [Compound 902], the IC50 was in the range of 1 to 5 µM.

On to `CN(C)CC(C)(C)c1ccc([S@@](N)(=O)=NC(=O)Nc2c3c(cc4c2CCC4)CCC3)cc1` [Compound 902b], for which the IC50 is 0.2 to 1 µM.

Consider `CC(C)c1cnc(S(N)(=O)=NC(=O)Nc2c3c(cc4c2CCC4)CCC3)c(F)c1` (centres unmarked) [Compound 903], for which the IC50 was in the range of 1 to 5 µM.

Regarding `CC(C)c1cnc([S@@](N)(=O)=NC(=O)Nc2c3c(cc4c2CCC4)CCC3)c(F)c1` [Compound 903a], the IC50 is 0.2 to 1 µM.

For `CC(C)c1cnc([S@](N)(=O)=NC(=O)Nc2c3c(cc4c2CCC4)CCC3)c(F)c1` [Compound 903b], the IC50 lay in the range of 5 to 30 µM.

As for `CCn1ccc(S(N)(=O)=NC(=O)Nc2c3c(cc4c2CCC4)CCC3)n1` (centres unmarked) [Compound 904], the IC50 lay within 0.2 to 1 µM.

Take `CCn1ccc([S@](N)(=O)=NC(=O)Nc2c3c(cc4c2CCC4)CCC3)n1` [Compound 904a]: the IC50 fell in the range of 0.04 to 0.2 µM.

For `CCn1ccc([S@@](N)(=O)=NC(=O)Nc2c3c(cc4c2CCC4)CCC3)n1` [Compound 904b], the IC50 is 1 to 5 µM.

With `CC(C)n1nc(S(N)(=O)=NC(=O)Nc2c3c(cc4c2C(=O)CC4)CCC3)cc1CO` (centres unmarked) [Compound 907], the IC50 was 1 to 5 µM.

`CC(C)n1nc(S(N)(=O)=NC(=O)Nc2c3c(cc4c2C(=O)CC4)CCC3)cc1C(C)(C)O` (centres unmarked) [Compound 908]: the IC50 fell in the range of 0.2 to 1 µM.

Consider `CC(C)n1nc([S@@](N)(=O)=NC(=O)Nc2c3c(cc4c2C(=O)CC4)CCC3)cc1C(C)(C)O` [Compound 908b], for which the IC50 was 0.2 to 1 µM.

Take `CN1CCCC(c2ccc(S(N)(=O)=NC(=O)Nc3c4c(cc5c3CC5)CCC4)c(F)c2)C1` (centres unmarked) [Compound 911]: the IC50 lay in the range of 1 to 5 µM.

Consider `CN1CCC[C@H](c2ccc([S@](N)(=O)=NC(=O)Nc3c4c(cc5c3CC5)CCC4)c(F)c2)C1` [Compound 911b], for which the IC50 was in the range of 1 to 5 µM.

For the molecule `CN1CCC[C@@H](c2ccc([S@@](N)(=O)=NC(=O)Nc3c4c(cc5c3CC5)CCC4)c(F)c2)C1` [Compound 911d], the IC50 was 1 to 5 µM.

`CC(C)(CO)c1ncc(S(N)(=O)=NC(=O)Nc2c3c(c(C#N)c4c2CCC4)CCC3)s1` (centres unmarked) [Compound 913]: the IC50 fell in the range of 0.04 to 0.2 µM.

Still in this assay, the particulars now being: Homo sapiens, THP-1, hTHP-1 assay containing 2% fetal bovine serum, Table B2, given as bound; read-out: IC50.
On to `CC(C)(O)c1ccc([S@@](N)(=O)=NC(=O)Nc2c3c(cc4c2C(=O)CC4)CCC3)cn1` [Compound 804a], for which the IC50 is > 30 µM.

Turning to `C[C@H](N[S@](=O)(=NC(=O)Nc1c2c(cc3c1CCC3)CCC2)c1cnc(C(C)(C)O)s1)c1ccccc1` [Compound 887b], the IC50 is > 30 µM.

Turning to `CN(C)CC(C)(C)c1ccc([S@](N)(=O)=NC(=O)Nc2c3c(cc4c2CCC4)CCC3)cc1` [Compound 902a], the IC50 was > 30 µM.

As for `CC(C)n1nc([S@](N)(=O)=NC(=O)Nc2c3c(cc4c2C(=O)CC4)CCC3)cc1C(C)(C)O` [Compound 908a], the IC50 was > 30 µM.

As for `CN1CCC[C@@H](c2ccc([S@](N)(=O)=NC(=O)Nc3c4c(cc5c3CC5)CCC4)c(F)c2)C1` [Compound 911a], the IC50 was > 30 µM.

As for `CN1CCC[C@H](c2ccc([S@@](N)(=O)=NC(=O)Nc3c4c(cc5c3CC5)CCC4)c(F)c2)C1` [Compound 911c], the IC50 was > 30 µM.

The assay is the same for the next values; noted with them: Table B3; hTHP-1 assay containing 2% fetal bovine serum, gramicidin stimulation, IL-1β readout; read-out: hTHP-1 IC50.
Take `CNCc1csc(S(N)(=O)=NC(=O)Nc2c3c(cc4c2CC4)CCC3)c1F` (single isomer, unassigned) [Example 871, (S) or (R) -3-fluoro-4-((methylamino)methyl)-N′-((2,4,5,6-tetrahydro-1H-cyclobuta[f]inden-3-yl)carbamoyl)thiophene-2-sulfonimidamide]: the IC50 lay in the range of 1 to 5 µM.

Regarding `NS(=O)(=NC(=O)Nc1c2c(cc3c1CC3)CCC2)c1cc2c(s1)CCN(CC(F)F)C2` (single isomer, unassigned) [Example 872, (R) or (S) -5-(2,2-difluoroethyl)-N′-((2,4,5,6-tetrahydro-1H-cyclobuta[f]inden-3-yl)carbamoyl)-4,5,6,7-tetrahydrothieno[3,2-c]pyridine-2-sulfonimidamide], the IC50 lay within 1 to 5 µM.

As for `NS(=O)(=NC(=O)Nc1c2c(cc3c1CC3)CCC2)c1cc2c(s1)CCN(CC(F)F)C2` (single isomer, unassigned) [Example 873, (S) or (R) -5-(2,2-difluoroethyl)-N′-((2,4,5,6-tetrahydro-1H-cyclobuta[f]inden-3-yl)carbamoyl)-4,5,6,7-tetrahydrothieno[3,2-c]pyridine-2-sulfonimidamide], the IC50 was > 30 µM.

Turning to `NS(=O)(=NC(=O)Nc1c2c(cc3c1CC3)CCC2)c1cc2c(s1)CCN[C@@H]2C(F)F` (single isomer, unassigned) [Example 874, (R or S,4S)-4-(difluoromethyl)-N′-((2,4,5,6-tetrahydro-1H-cyclobuta[f]inden-3-yl)carbamoyl)-4,5,6,7-tetrahydrothieno[3,2-c]pyridine-2-sulfonimidamide], the IC50 was in the range of 0.04 to 0.2 µM.

Regarding `NS(=O)(=NC(=O)Nc1c2c(cc3c1CC3)CCC2)c1cc2c(s1)CCN[C@@H]2C(F)F` (single isomer, unassigned) [Example 875, (S or R,4S)-4-(difluoromethyl)-N′-((2,4,5,6-tetrahydro-1H-cyclobula[f]inden-3-yl)carbamoyl)-4,5,6,7-tetrahydrothieno[3,2-c]pyridine-2-sulfonimidamide], the IC50 lay in the range of 1 to 5 µM.

Take `NS(=O)(=NC(=O)Nc1c2c(cc3c1CC3)CCC2)c1cc2c(s1)CCN[C@H]2C(F)F` (single isomer, unassigned) [Example 876, (R or S,4R)-4-(difluoromethyl)-N′-((2,4,5,6-tetrahydro-1H-cyclobuta[f]inden-3-yl)carbamoyl)-4,5,6,7-tetrahydrothieno[3,2-c]pyridine-2-sulfonimidamide]: the IC50 is 0.04 to 0.2 µM.

For `NS(=O)(=NC(=O)Nc1c2c(cc3c1CC3)CCC2)c1cc2c(s1)CCN[C@H]2C(F)F` (single isomer, unassigned) [Example 877, (S or R,4R)-4-(difluoromethyl)-N′-((2,4,5,6-tetrahydro-1H-cyclobuta[f]inden-3-yl)carbamoyl)-4,5,6,7-tetrahydrothieno[3,2-c]pyridine-2-sulfonimidamide], the IC50 lay in the range of 1 to 5 µM.

With `CC(O)(CO)c1nc(CO)c(S(N)(=O)=NC(=O)Nc2c3c(cc4c2CCC4)CCC3)s1` (stereo in doubt) [Example 755, 2-((S)-1,2-dihydroxypropan-2-yl)-N′-((1,2,3,5,6,7-hexahydro-s-indacen-4-yl)carbamoyl)-4-(hydroxymethyl)thiazole-5-sulfonimidamide], the IC50 was in the range of 0.2 to 1 µM.

What is called IC50 is the midpoint of a concentration-inhibition curve.
